Source: patent US20140088197A1, “MIXED CRYSTAL AGOMELATINE (FORM VIII), PREPARATION METHOD AND USE THEREOF AND PHARMACEUTICAL COMPOSITION CONTAINING SAME” (LES LABORATORIES SERVIER, priority 2011, published 2014)
Values after ≈ are worked out from the molar mass of the structure shown. Where two headings read alike, the source gives them in different places.

Legend:
Type in all cases: physicochemical
[1] = Determination of crystalline stability (pharmacopoeia stability assessment method); set-up: key to Crystalline stability, long term testing (6 months) / Crystalline stability, long term testing (9 months) / Crystalline stability, long term testing (12 months) / Crystalline stability, influencing factor: high temperature / Crystalline stability, influencing factor: illumination / Crystalline stability, influencing factor: high humidity / Crystalline stability, accelerated testing: √—stable; x—unstable; conditions: for Crystalline stability, influencing factor: high temperature: 60° C.; for Crystalline stability, influencing factor: high temperature / Crystalline stability, influencing factor: high humidity / Crystalline stability, influencing factor: illumination: exposed for 10 days; for Crystalline stability, influencing factor: high humidity: 92.5% RH; for Crystalline stability, influencing factor: high humidity / Crystalline stability, long term testing (6 months) / Crystalline stability, long term testing (9 months) / Crystalline stability, long term testing (12 months): 25° C.; for Crystalline stability, accelerated testing: hermetically sealed for 6 months, 30° C., 65% RH; for Crystalline stability, long term testing (6 months) / Crystalline stability, long term testing (9 months) / Crystalline stability, long term testing (12 months): hermetically sealed, 60% RH
Description: 4. Determination of Crystalline Stability

[2] = Storage stability at 40° C. for 20 days, purity and content by HPLC; conditions: for Content: external standard method; for Purity: internal standard method
Experimental: Agomelatine crystalline forms VI and VIII (obtained through embodiment 2) are each placed in thermostatic containers at a temperature of 40° C. and stored for 20 days, with the stability of these samples being studied using the method of High Performance Liquid Chromatography.
1. Purity Measurement of the Sample
Chromatographic conditions: Octadecyl silane chemically bonded silica is used as packing; a mixed solution of 10 mmol/L phosphate buffer (adjusted to pH 7.0 with sodium hydroxide) and acetonitrile in the ratio 2:7 by volume acts as the mobile phase; column temperature 40° C.; and detection wavelength 220 nm. Purity is measured using an internal standard method.
In the mobile phase, crystalline forms VI and VIII are distributed into 1 mg/mL solutions, 10 μL of each of which are then passed into a liquid chromatograph, with their chromatograms being recorded.
The reference sample purity measurement method was used, with measurements being made using an […], the results can be seen in Table I.

[3] = Measurement of water solubility (HPLC, external standard); conditions: for solubility: water
Description: 3. Measurement of Water Solubility
The HPLC method was used to determine water solubility, with measurements being made using an external standard method.

[4] = after storage in thermostatically controlled containers at 40° C. for 20 days
[5] = compared with crystalline form VI

Row | Structure (SMILES) | Crystalline stability, influencing factor: high temperature [1] | Crystalline stability, influencing factor: high humidity [1] | Crystalline stability, influencing factor: illumination [1] | Crystalline stability, accelerated testing [1] | Crystalline stability, long term testing (6 months) [1] | Crystalline stability, long term testing (9 months) [1] | Crystalline stability, long term testing (12 months) [1] | Crystal transition under extreme conditions ([1]; high temperature of 60° C. for 10 days) | Content [2, 4] [%] | Purity [2, 4] [%] | Content ([2]; before storage) [%] | Purity ([2]; before storage) [%] | solubility ([3]; read-out: Solubility) [µg/mL] | Stability under high temperature compared with crystalline form VI [1, 5] | Solubility compared with crystalline form VI [3, 5] | solubility [3] [µg/mL]
1 | COc1ccc2cccc(CCNC(C)=O)c2c1 [Crystalline form VI, N-[2-(7-methoxy-1-naphthyl)ethyl]acetamide, reference compound] | x* | √ | √ | √ | √ | √ | x | small amounts of crystal transition can occur | 99.8 | 99.6 | 100.1 | 99.7 | 336 (≈ 1380 µM) | – | – | –
2 | COc1ccc2cccc(CCNC(C)=O)c2c1 [Form VIII, N-[2-(7-methoxy-1-naphthyl)ethyl]acetamide] | √* | √ | √ | √ | √ | √ | √ | – | 100.1 | 99.7 | 100.3 | 99.8 | – | greater stability under high temperature | comparable solubility | 335 (≈ 1380 µM)
